# Data taken from patent US20250353853A1, “FLAVIVIRUS INHIBITORS” (IRBM S.P.A., priority 2022, published 2025).
# Like-named read-outs stand apart in the source and are kept apart here.
# Tests used:
# [1] = molecular target: West Nile Virus (WNV) NS2B-NS3 protease (West Nile virus (WNV), UniProt P06935); assay: WNV Protease Inhibition Assay; assay type: biochemical
# Source text: WNV Protease Inhibition Assay
# [2] = system: ZIKV replicon in Vero cells; assay: ZIKV Replication Inhibition Assay (replicon, NanoLuc); details: Zika virus, Vero, 72 h, read-out: Zika Replicon EC50
# [3] = 2 nM protease, 10 μM pERTKR-AMC substrate, read-out: WNV Protease IC50
# Sequence of West Nile Virus (WNV) NS2B-NS3 protease (P06935 1502-1679 limits assumed): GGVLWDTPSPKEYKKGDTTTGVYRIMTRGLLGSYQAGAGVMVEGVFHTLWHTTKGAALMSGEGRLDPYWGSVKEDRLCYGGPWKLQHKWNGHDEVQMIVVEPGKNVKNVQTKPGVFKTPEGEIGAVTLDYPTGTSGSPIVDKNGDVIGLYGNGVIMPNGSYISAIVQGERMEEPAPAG
# Sequence of West Nile Virus (WNV) NS2B-NS3 protease (P06935 1371-1501 partner limits assumed): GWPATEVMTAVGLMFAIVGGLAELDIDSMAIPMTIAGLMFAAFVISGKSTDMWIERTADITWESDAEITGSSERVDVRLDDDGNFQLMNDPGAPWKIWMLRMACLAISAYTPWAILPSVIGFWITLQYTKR
SMILES,"IC50 [1, 3] [µM]",EC50 [2] [µM],IC50 [1] [µM]
"Cc1ccnnc1-c1ccc(C[n+]2cc([N-]C(=O)Nc3cccc(C(F)(F)F)c3)on2)nc1 [Example 162, (3-((5-(4-methylpyridazin-3-yl)pyridin-2-yl)methyl)-1,2,3-oxadiazol-3-ium-5-yl)((3-(trifluoromethyl)phenyl)carbamoyl)amide]",< 0.1,< 0.1,–
"Cc1noc(C)c1-c1ccc(C[n+]2cc([N-]C(=O)Nc3cc(F)cc(C(F)(F)F)c3)on2)nc1 [Example 153, (3-((5-(3,5-dimethylisoxazol-4-yl)pyridin-2-yl)methyl)-1,2,3-oxadiazol-3-ium-5-yl)((3-fluoro-5-(trifluoromethyl)phenyl)carbamoyl)amide]",–,< 0.1,0.1 to 1
"Cc1nn(C)c(C)c1-c1ccc(C[n+]2cc([N-]C(=O)Nc3cccc(C(F)(F)F)c3)on2)nc1 [Example 143, ((3-(trifluoromethyl)phenyl)carbamoyl)(3-((5-(1,3,5-trimethyl-1H-pyrazol-4-yl)pyridin-2-yl)methyl)-1,2,3-oxadiazol-3-ium-5-yl)amide]",< 0.1,0.1 to 1,–
"Cc1cnncc1-c1ccc(C[n+]2cc([N-]C(=O)Nc3cncc(C(F)(F)F)c3)on2)nc1 [Example 128, (3-((5-(5-methylpyridazin-4-yl)pyridin-2-yl)methyl)-1,2,3-oxadiazol-3-ium-5-yl)((5-(trifluoromethyl)pyridin-3-yl)carbamoyl)amide]",–,1 to 20,0.1 to 1
"Cc1ncnc(C)c1-c1cnc(C[n+]2cc([N-]C(=O)Nc3cccc(C(F)(F)F)c3)on2)nc1 [Example 183, (3-((4′,6′-dimethyl-[5,5′-bipyrimidin]-2-yl)methyl)-1,2,3-oxadiazol-3-ium-5-yl)((3-(trifluoromethyl)phenyl)carbamoyl)amide]",–,< 0.1,0.1 to 1
"O=C([N-]c1c[n+](Cc2ccc(-c3ccncc3F)cn2)no1)Nc1cccc(C(F)(F)F)c1 [Example 164, (3-((3′-fluoro-[3,4′-bipyridin]-6-yl)methyl)-1,2,3-oxadiazol-3-ium-5-yl)((3-(trifluoromethyl)phenyl)carbamoyl)amide]",–,< 0.1,0.1 to 1
"Cc1ncnc(C)c1-c1ccc(C[n+]2cc([N-]C(=O)Nc3cncc(C(F)(F)F)c3)on2)nc1 [Example 132, (3-((5-(4,6-dimethylpyrimidin-5-yl)pyridin-2-yl)methyl)-1,2,3-oxadiazol-3-ium-5-yl)((5-(trifluoromethyl)pyridin-3-yl)carbamoyl)amide]",–,0.1 to 1,0.1 to 1
"O=C([N-]c1c[n+]([C@@H](Cc2ccccc2)CN2CCCC2)no1)Nc1cccc(C(F)(F)F)c1 [Example 40, (S)-(3-(1-phenyl-3-(pyrrolidin-1-yl)propan-2-yl)-1,2,3-oxadiazol-3-ium-5-yl)((3-(trifluoromethyl)phenyl)carbamoyl)amide]",–,1 to 20,1 to 20
"Cc1noc(C)c1-c1ccc(C[n+]2cc([N-]C(=O)Nc3ccnc(C(F)(F)F)c3)on2)nc1 [Example 152, (3-((5-(3,5-dimethylisoxazol-4-yl)pyridin-2-yl)methyl)-1,2,3-oxadiazol-3-ium-5-yl)((2-(trifluoromethyl)pyridin-4-yl)carbamoyl)amide]",< 0.1,< 0.1,–
"Cc1ncnc(C)c1-c1ccc(C[n+]2cc([N-]C(=O)Nc3ccnc(C(F)(F)F)c3)on2)nc1 [Example 176, (3-((5-(4,6-dimethylpyrimidin-5-yl)pyridin-2-yl)methyl)-1,2,3-oxadiazol-3-ium-5-yl)((2-(trifluoromethyl)pyridin-4-yl)carbamoyl)amide]",< 0.1,0.1 to 1,–
"O=C([N-]c1c[n+](Cc2ccc(-c3cncnc3C(F)(F)F)cn2)no1)Nc1cncc(C(F)(F)F)c1 [Example 137, ((5-(trifluoromethyl)pyridin-3-yl)carbamoyl)(3-((5-(4-(trifluoromethyl)pyrimidin-5-yl)pyridin-2-yl)methyl)-1,2,3-oxadiazol-3-ium-5-yl)amide]",< 0.1,< 0.1,–
"Cc1noc(C)c1-c1ccc(C[n+]2cc([N-]C(=O)Nc3cnc(C(F)(F)F)s3)on2)nc1 [Example 154, (3-((5-(3,5-dimethylisoxazol-4-yl)pyridin-2-yl)methyl)-1,2,3-oxadiazol-3-ium-5-yl)((2-(trifluoromethyl)thiazol-5-yl)carbamoyl)amide]",–,0.1 to 1,0.1 to 1
"Cc1ncnc(C)c1-c1ccc(C[n+]2cc([N-]C(=O)Nc3cccc(C4CC4)c3)on2)nc1 [Example 182, ((3-cyclopropylphenyl)carbamoyl)(3-((5-(4,6-dimethylpyrimidin-5-yl)pyridin-2-yl)methyl)-1,2,3-oxadiazol-3-ium-5-yl)amide]",–,0.1 to 1,0.1 to 1
"O=C([N-]c1c[n+](Cc2ccc(-c3cncnc3C3CC3)cn2)no1)Nc1cccc(C(F)(F)F)c1 [Example 155, (3-((5-(4-cyclopropylpyrimidin-5-yl)pyridin-2-yl)methyl)-1,2,3-oxadiazol-3-ium-5-yl)((3-(trifluoromethyl)phenyl)carbamoyl)amide]",–,0.1 to 1,0.1 to 1
"C[C@H](c1ccc(Br)cc1)[n+]1cc([N-]C(=O)Nc2cncc(C(F)(F)F)c2)on1 [Example 73, (R)-(3-(1-(4-bromophenyl)ethyl)-1,2,3-oxadiazol-3-ium-5-yl)((5-(trifluoromethyl)pyridin-3-yl)carbamoyl)amide]",–,1 to 20,1 to 20
